Like-named read-outs stand apart in the source and are kept apart here. Each block holds one compound with its values, some of them ahead of it.
How the values were obtained:
[1] = Plasma concentration of omeprazole and hydroxyomeprazole by HPLC 3 hours after a single oral 20 mg omeprazole dose; assay type: in vivo, human; settings: for Mean OH-OMP concentration ± SD / concentration at 3 h: plasma, 3 h after single oral 20 mg omeprazole; for concentration at 3 h: human, po, 20 mg, read-out: Mean OMP concentration ± SD
Excerpt: (§1) The study protocol was approved by ethics committee of Tehran University of Medical Sciences (ethical no. 11208). Generally one hundred and eighty (60 women and 120 men) unrelated healthy Iranian volunteers with the mean age of between 20–55 years and average body weight of 45–89 kg took part in this study. All participants signed written informed consent of this project. The study was completed by contribution of faculties of pharmacy of Tehran, Yazd, Kermanshah and Kerman University of Medical Sciences. The participants were students or stuffs of pharmacy schools, with no history of any illness or medicine consumption. No smoking and consumption of medicine that would affect CYP2C19 activity was permitted for one week before and during the study.
(§2) After an overnight fast for at least 8 hours, volunteers took 20 mg omeprazole capsule (Abidi pharmaceuticals) with 250 milliliter tap water. Ten ml venous blood sample was collected from each subject 3 hours after administration of omeprazole and transferred into tubes containing 10 μl of 10% EDTA. Five ml of blood samples were centrifuged for 5 min at 4000 rpm and the plasma was separated and transferred to Eppendorf tube and stored at −80°C up to the day of analysis. The other 5 ml blood samples were stored directly in −80°C for genotyping analysis.
(§3) Omeprazole powder was purchased from TMAD (Iran). 5-hydroxyomeprazole was a kind donation by AstraZeneca (Sweden). The concentration of omeprazole and 5-hydroxyomeprazole was analyzed by HPLC method as described by Rezk et al. with a few modifications. Briefly 500 μl plasma was extracted by liquid-liquid extraction using 1500 μl ethyl acetate. After orbital mixing for 10 min and centrifuging at 4000 × g for 10 min, the upper organic layer was separated and transferred to glass tube and then evaporated to dryness under gentle stream of air. Finally the residue was dissolved in 250 μl mobile phase and 100 μl of this sample was injected to HPLC system. The mobile phase was a combination of dibasic sodium phosphate buffer (0.025 mol/lit, pH 6): acetonitrile: methanol (73: 18: 8 V/V/V). The HPLC apparatus consisted of a low pressure HPLC pump, UV detector (λ = 302 nm) all from Knauer (Berlin, Germany). The chromatographic separation was performed by using Chromolit™ Performance RP-18e 100 mm × 4.6 mm, 5 μm particle size. Flow rate was adjusted to 1 ml/min.

[2] = test system: CYP2C19; settings: cited from earlier work
[3] = design: method as in PMID 20804307; settings: Iranian patients with erosive reflux esophagitis, cited from earlier work
[4] = test system: CYP2C19; assay: Omeprazole hydroxylation index (omeprazole/hydroxyomeprazole in plasma) as measure of CYP2C19 activity; assay type: in vivo, human; design: key to Median hydroxylation index / Median hydroxylation index (HI) / Mean HI ± SD: ratio: plasma omeprazole / 5-hydroxyomeprazole concentration at 3 h; settings: for Mean HI ± SD: 3 h after single oral 20 mg omeprazole; for Median hydroxylation index: all genotypes
Excerpt: as §1, §2, §3
(§4) The allele frequencies differences between population were estimated using two-tailed Fisher’s exact test. The 95% confidence intervals (CI) were calculated using Confidence Interval Analysis software. The relation of sex and genotype was assessed by two tailed Fisher’s exact test. The observed and expected frequencies were calculated by using Hardy-Weinberg equation. The two-tailed Fisher’s exact test was used to evaluate deviation of genotype frequencies in the studied population from Hardy-Weinberg equilibrium. The enzyme activity was compared by using omeprazole hydroxylation index. The hydroxylation index (HI) of omeprazole 3 hours after administration of omeprazole was calculated by dividing omeprazole to 5-hydroxyomeprazol plasma concentration. The mean HI in different genotypes were compared by Mann–Whitney two tailed test. The impact of sex on HI of omeprazole was also evaluated using Mann–Whitney two tailed test. The inter-individual variability in metabolism of omeprazole was represented by probit plot. For drawing probit plot, the log of HI was calculated, the antimode value was determined using Microsoft office excel 2010. The normality of HI distribution was analyzed by frequency distribution histogram and also by Kolmogorov- Smirnov test. All statistical analyses were performed by Sigma Plot version 12.0 and Graph Pad Prism version 5 softwares and P < 0.05 was considered as statistically significant difference.

[5] = target: T1, CYP2C19 (Homo sapiens, UniProt P33261); assay: as above; assay type: in vivo; design: key to Median hydroxylation index / Median hydroxylation index (HI) / Mean HI ± SD: ratio: plasma omeprazole / 5-hydroxyomeprazole concentration at 3 h
T1 construct: volunteers took 20 mg omeprazole capsule (Abidi pharmaceuticals) with 250 milliliter tap water; from tissue; host or cells: in vivo, endogenous enzyme of healthy human volunteers; metabolites measured in plasma
T1 sequence (P33261 whole entry): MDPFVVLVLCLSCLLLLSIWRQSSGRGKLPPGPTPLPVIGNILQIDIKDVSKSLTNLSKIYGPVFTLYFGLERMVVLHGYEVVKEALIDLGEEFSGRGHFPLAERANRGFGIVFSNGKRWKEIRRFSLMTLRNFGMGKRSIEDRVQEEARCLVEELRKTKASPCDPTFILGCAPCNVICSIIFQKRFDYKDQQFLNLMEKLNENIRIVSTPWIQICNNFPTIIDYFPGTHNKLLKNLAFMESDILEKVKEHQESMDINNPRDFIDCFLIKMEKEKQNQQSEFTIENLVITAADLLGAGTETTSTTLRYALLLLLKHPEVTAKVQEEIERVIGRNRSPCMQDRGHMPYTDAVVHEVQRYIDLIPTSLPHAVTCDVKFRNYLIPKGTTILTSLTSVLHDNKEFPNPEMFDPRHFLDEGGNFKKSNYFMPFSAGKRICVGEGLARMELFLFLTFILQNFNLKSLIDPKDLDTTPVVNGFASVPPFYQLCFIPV
Excerpt: as §1, §2, §3, §4

- Hydroxyomeprazole plasma concentration, women compared with men ([1]; 60 women vs 120 men, P > 0.05): not statistically different
- Mean OH-OMP concentration ± SD ([1]; genotype 1*1, Men (53)): 151.01 ± 26.38 ng/mL
- Mean OH-OMP concentration ± SD ([1]; genotype 1*1, Total (75)): 163.74 ± 32.25 ng/mL
- Mean OH-OMP concentration ± SD ([1]; genotype 1*1, Women (22)): 194.40 ± 60.84 ng/mL
- Mean OH-OMP concentration ± SD ([1]; genotype 1*2, Men (20)): 165.53 ± 23.55 ng/mL
- Mean OH-OMP concentration ± SD ([1]; genotype 1*2, Total (33)): 177.79 ± 38.39 ng/mL
- Mean OH-OMP concentration ± SD ([1]; genotype 1*2, Women (13)): 194.66 ± 52.56 ng/mL
- Mean OH-OMP concentration ± SD ([1]; genotype 1*17, Men (37)): 178.07 ± 44.57 ng/mL
- Mean OH-OMP concentration ± SD ([1]; genotype 1*17, Total (52)): 177.05 ± 37.53 ng/mL
- Mean OH-OMP concentration ± SD ([1]; genotype 1*17, Women (15)): 174.51 ± 28.01 ng/mL
- Mean OH-OMP concentration ± SD ([1]; genotype 2*2, Men (1)): 103.58 ng/mL
- Mean OH-OMP concentration ± SD ([1]; genotype 2*2, Total (4)): 104.67 ± 10.55 ng/mL
- Mean OH-OMP concentration ± SD ([1]; genotype 2*2, Women (3)): 105.03 ± 13.80 ng/mL
- Mean OH-OMP concentration ± SD ([1]; genotype 2*17, Men (2)): 169.82 ± 84.95 ng/mL
- Mean OH-OMP concentration ± SD ([1]; genotype 2*17, Total (6)): 172.79 ± 63.58 ng/mL
- Mean OH-OMP concentration ± SD ([1]; genotype 2*17, Women (4)): 178.72 ± 33.59 ng/mL
- Mean OH-OMP concentration ± SD ([1]; genotype 17*17, Men (5)): 201.69 ± 32.08 ng/mL
- Mean OH-OMP concentration ± SD ([1]; genotype 17*17, Total (10)): 203.31 ± 34.93 ng/mL
- Mean OH-OMP concentration ± SD ([1]; genotype 17*17, Women (5)): 204.92 ± 41.35 ng/mL
Structure (SMILES): COc1ccc2nc([S+]([O-])Cc3ncc(CO)c(OC)c3C)[nH]c2c1 (stereo not shown) [hydroxyomeprazole, 5-hydroxyomeprazole]

- Omeprazole plasma concentration, women compared with men ([1]; 60 women vs 120 men, P > 0.05): not statistically different
- Mean omeprazole plasma concentration, fold higher in CYP2C19*2*2 than CYP2C19*1*1 ([1]; *2*2 vs *1*1, P < 0.001): 11 fold
- Mean omeprazole plasma concentration, fold higher in CYP2C19*2*2 than CYP2C19*17*17 ([1]; *2*2 vs *17*17, P < 0.001): 19.0 fold
- concentration at 3 h ([1]; both sexes, genotype 1*1, Total (75)): 125 ± 27.2 ng/mL
- concentration at 3 h ([1]; both sexes, genotype 1*2, Total (33)): 319 ± 150 ng/mL
- concentration at 3 h ([1]; both sexes, genotype 1*17, Total (52)): 118 ± 10.2 ng/mL
- concentration at 3 h ([1]; both sexes, genotype 2*2, Total (4)): 1390 ± 123 ng/mL
- concentration at 3 h ([1]; both sexes, genotype 2*17, Total (6)): 289 ± 97.5 ng/mL
- concentration at 3 h ([1]; both sexes, genotype 17*17, Total (10)): 71 ± 10.3 ng/mL
- concentration at 3 h ([1]; female, genotype 1*1, Women (22)): 128 ± 39.9 ng/mL
- concentration at 3 h ([1]; female, genotype 1*2, Women (13)): 365 ± 265 ng/mL
- concentration at 3 h ([1]; female, genotype 1*17, Women (15)): 120 ± 20.1 ng/mL
- concentration at 3 h ([1]; female, genotype 2*2, Women (3)): 1360 ± 133 ng/mL
- concentration at 3 h ([1]; female, genotype 2*17, Women (4)): 324 ± 39.9 ng/mL
- concentration at 3 h ([1]; female, genotype 17*17, Women (5)): 68.3 ± 5.73 ng/mL
- concentration at 3 h ([1]; male, genotype 1*1, Men (53)): 123 ± 20.8 ng/mL
- concentration at 3 h ([1]; male, genotype 1*2, Men (20)): 290 ± 168 ng/mL
- concentration at 3 h ([1]; male, genotype 1*17, Men (37)): 117 ± 16.1 ng/mL
- concentration at 3 h ([1]; male, genotype 2*2, Men (1)): 1480 ng/mL
- concentration at 3 h ([1]; male, genotype 2*17, Men (2)): 271 ± 119 ng/mL
- concentration at 3 h ([1]; male, genotype 17*17, Men (5)): 73.7 ± 13.7 ng/mL
- Omeprazole HI, women compared with men ([4]; 60 women vs 120 men, P > 0.05): not statistically different
- Median HI, fold higher in CYP2C19*1 homozygous than in CYP2C19*17 homozygous subjects ([4]; *1*1 vs *17*17, P < 0.001): 2.17 fold
- Median HI, fold higher in CYP2C19*1*17 than in CYP2C19*17*17 subjects ([4]; *1*17 vs *17*17, P < 0.001): 1.97 fold
- Mean HI ± SD ([4]; genotype 1*1, Men (53)): 0.89 ± 0.30
- Mean HI ± SD ([4]; genotype 1*1, Women (22)): 0.78 ± 0.27
- Mean HI ± SD ([4]; genotype 1*2, Men (20)): 2.29 ± 1.19
- Mean HI ± SD ([4]; genotype 1*2, Women (13)): 2.24 ± 0.79
- Mean HI ± SD ([4]; genotype 1*17, Men (37)): 0.77 ± 0.32
- Mean HI ± SD ([4]; genotype 1*17, Women (15)): 0.72 ± 0.18
- Mean HI ± SD ([4]; genotype 2*2, Men (1)): 14.25
- Mean HI ± SD ([4]; genotype 2*2, Women (3)): 13.37 ± 3.80
- Mean HI ± SD ([4]; genotype 2*17, Men (2)): 2.05 ± 0.67
- Mean HI ± SD ([4]; genotype 2*17, Women (4)): 1.97 ± 0.62
- Mean HI ± SD ([4]; genotype 17*17, Men (5)): 0.36 ± 0.04
- Mean HI ± SD ([4]; genotype 17*17, Women (5)): 0.34 ± 0.08
- Median hydroxylation index ([4]; men (120)): 0.86
- Median hydroxylation index ([4]; women (60)): 0.84
- Median hydroxylation index (HI) ([5]; CYP2C19 *1*1, 3 h after 20 mg omeprazole orally): 0.78
- Median hydroxylation index (HI) ([5]; CYP2C19 *1*17, 3 h after 20 mg omeprazole orally): 0.71
Structure (SMILES): COc1ccc2[nH]c([S+]([O-])Cc3ncc(C)c(OC)c3C)nc2c1 (stereo not shown) [omeprazole]
- Antimode for HI of omeprazole ([2]; Colombians): 0.63
- Antimode for HI of omeprazole ([2]; Indian): 14.4
- Antimode for HI of omeprazole ([2]; Koreans): 7.0
- Mean HI, fold higher in CYP2C19*1*1 than CYP2C19*1*17 ([2]; Ramsjö et al.): 1.1 fold
- Mean HI, fold higher in CYP2C19*1*1 than CYP2C19*17*17 ([2]; Ramsjö et al.): 3.2 fold
- Median HI, fold higher in homozygous CYP2C19*1 than CYP2C19*1*17 carriers ([2]; Sim et al.): 1.2 fold
- Median HI, fold higher in homozygous CYP2C19*1 than homozygous CYP2C19*17 carriers ([2]; Sim et al.): 2 fold
- Antimode for HI of omeprazole ([2]; Thai population): 7.0
- Antimode for HI of omeprazole ([2]; West Mexicans): 3.98
- Successful treatment response ([3]; EM genotype): 43%
- Successful treatment response ([3]; HetEM genotype): 95%

From PMC4266903, “Hydroxylation index of omeprazole in relation to CYP2C19 polymorphism and sex in a healthy Iranian population” (DARU Journal of Pharmaceutical Sciences, 2014)
